Assay results published in US20250352445A1, “COMPOSITIONS FOR SEBUM CONTROL” (Dyson Operations Pte. Ltd., priority 2022, published 2025).

System: Primary sebocytes
Test: Lipid reduction in primary sebocytes, AdipoRed dye, mean fluorescence intensity by flow cytometry
Assay type: cell-based, human
Details: primary sebocytes incubated 3 days, 10 μM for the compound, 31.25 μg/mL for the extract, average of 10,000 cells
Procedure: Primary sebocytes were derived from the forehead of a person. The same cell line was used in all experiments. Flow cytometry experiments were conducted on the BD LSR Fortessa X-20 as follows: Sebocytes stained with a lipid dye (AdipoRed™) were first analyzed according to size and granularity with only single cells selected for AdipoRed™ signal intensity measurement. […] Cells treated with compositions of the invention were compared to vehicle-treated cells to determine the percentage of lipid reduction. […] The cells were washed with PBS buffer [5 mL for a 10 cm culture plate] and then incubated at 37° C. with 0.125% Trypsin-EDTA (Gibco, 15400054) [2 mL of Trypsin for a 10 cm culture plate] for 5-10 minutes. […] When all cells had detached, fixative solution (250 μL; […] The tubes were stored on ice before flow cytometry. Mean fluorescence intensity of the lipid signal can be obtained from the flow cytometer plot which are used to determine the inhibitory effect of the compounds on the sebocytes. The lipid reduction effects of the compositions of the invention were measured against DMSO as a negative control, and against the known lipid-reducing compounds epigallocatechin gallate (EGCG) and salicylic acid (SA) as positive controls. The results are shown in Table 3 and FIGS. 1 to 7.

O=C(O[C@@H]1Cc2c(O)cc(O)cc2O[C@@H]1c1cc(O)c(O)c(O)c1)c1cc(O)c(O)c(O)c1 [EGCG, epigallocatechin gallate]
Percentage Reduction in Mean Fluorescence Intensity (Against DMSO Control): 13.4%
